Source: patent US5492918A, “Use of substituted chromans, some of which are known, as medicaments, new active compounds and processes for their preparation” (Bayer Aktiengesellschaft, priority 1993, dated 1996)
Like-named read-outs stand apart in the source and are kept apart here.

Key:
HIV protease = target: T1, HIV protease (Human immunodeficiency virus type 1 group M subtype B, UniProt P04585); experiment: biochemical; conditions: for inhibition at 200 µg/mL: read-out: % Inhibition at 200 μg/ml
T1 construct: purified HIV protease
Procedure: This is confirmed by an HIV-specific protease enzyme test.
The results of the examples shown below were determined by the HIV test system described in the following bibliographical references [cf. Hansen, J., Billich, S., Schulze, T., Sukrow, S. and Molling, K. (1988), EMBO Journal, Vol, 7, No. 6, pp. 1785-1791]: purified HIV protease was incubated with synthetic peptide which imitated a cleavage site in the Gag precursor protein and is an in vivo cleavage site of HIV protease. The resultant cleavage products of the synthetic peptide were analysed by means of reverse phase high performance liquid chromatography (RP-HPLC). The IC50 values indicated relate to the substance concentration which, under the abovementioned test conditions, causes a 50% inhibition of protease activity.

HIV = HIV infection in cell culture: suppression of virus-induced syncytia in human blood lymphocytes (PBL); format: cell-based; conditions: Human immunodeficiency virus 1, 72 h, 50% of virus-induced syncytia suppressed, day 3 to 6 after infection
Procedure: The HIV test was carried out with slight modifications by the method of Pauwels et al,. [cf. Journal of Virological Methods 20, (1988) , 309-321].
Normal human blood lymphocytes (PBLs) were concentrated on Ficoll Hypaque and stimulated with phytohaemagglutinin (90 μg/ml) and interleukin-2 (40 U/ml) in RPMI 1640, 20% foetal calf serum. For infection with the infectious HIV, PBLs were pelleted and the cell pellet was then suspended in 1 ml of HIV virus adsorption solution and incubated at 37° C for 1 hour.
Alternatively, HIV-susceptible H9 cells were employed instead of normal human blood lymphocytes for testing of the antiviral effects of the compounds according to the invention.
The virus adsorption solution was centrifuged and the infected cell pellet was taken up in growth medium such that a concentration of 1×10^5 cells per ml was set. The cells infected in this way were pipetted at 1×10^4 cells/well into the wells of 96-well microtitre plates.
The first vertical row of the microtitre plate contained only growth medium and cells which had not been infected but otherwise treated exactly as described above (cell control). […]
The test batches were incubated at 37° C until the syncytia formation typical of HIV occurred in the untreated virus control (between day 3 and 6 after infection), which was then assessed microscopically. […]

[1] = 200 μg/ml, purified HIV protease, synthetic peptide substrate, RP-HPLC

Row | inhibition at 200 µg/mL (HIV protease; [1]) [%] | Compound | inhibition at 200 µg/mL (HIV protease) [%] | other results
1 |  | O=c1[nH]c2ccccc2n1C1CCN(CC2CCc3cccc(O)c3O2)CC1 (racemic) [Example 33, 8-Hydroxy-2-[4-(2-oxo-1-benzimidazolyl)piperidylmethyl]-chroman] | 99 | 
2 | 99 | COc1cccc2c1OC(C(=O)N1CCC(NC(=O)Nc3ccccc3)CC1)CC2 (centres unmarked) [Example 1, 8-Methoxy-2-[4-(phenylaminocarbonyl-amino)piperidylcarbonyl]-chroman] |  | 
3 | 65 | O=C(C1CCc2ccccc2O1)N1CCC(n2c(=O)[nH]c3ccccc32)CC1 (centres unmarked) [Example 21] |  | 
4 | 99 | COc1cccc2c1OC(C(=O)N1CCC(n3c(=O)[nH]c4ccccc43)CC1)CC2 (centres unmarked) [Example 24] |  | 
5 | 74 | COc1cccc2c1O[C@H](C(=O)N1CCC(n3c(=O)[nH]c4ccccc43)CC1)CC2 [Example 25] |  | 
6 |  | O=c1[nH]c2ccccc2n1C1CCN(CC2CCc3ccccc3O2)CC1 (centres unmarked) [Example 27] | 81 | 
7 |  | O=c1[nH]c2ccccc2n1C1CCN(C[C@@H]2CCc3ccccc3O2)CC1 [Example 28] | 94 | 
8 |  | COc1cccc2c1OC(CN1CCC(n3c(=O)[nH]c4ccccc43)CC1)CC2 (centres unmarked) [Example 30] | 99 | IC50 (HIV protease; 50% inhibition of protease activity, purified HIV protease, synthetic peptide substrate): 0.0002 µM; IC50 (HIV): 10 µM
9 |  | COc1cccc2c1O[C@H](CN1CCC(n3c(=O)[nH]c4ccccc43)CC1)CC2 [Example 31] |  | IC50 (HIV): 10 µM
